# Measured values from US12371454B2, “Cyclic peptide compound having Kras inhibitory action” (priority 2019, dated 2025).
# Starred links: 1 amine or outer side, 2 acyl side, 3 side chain; linkers in the order of their positions; H or OH if unused. Positions of bridges follow the written chain, without caps; N, C: chain ends. Non-standard residues stand in square brackets, D forms with d. Residues, ends and D or L forms follow the SMILES beside them. *: point of attachment. hPhe(3,5-F2-4-CF3) = N[C@@H](CCc1cc(F)c(C(F)(F)F)c(F)c1)C(=O)O; hPhe(3-Cl-4-CF3) = N[C@@H](CCc1ccc(C(F)(F)F)c(Cl)c1)C(=O)O; NMePhe(4-CF3) = CN[C@@H](Cc1ccc(C(F)(F)F)cc1)C(=O)O; hPhe(4-CF3) = N[C@@H](CCc1ccc(C(F)(F)F)cc1)C(=O)O; NMePhe(4-Cl) = CN[C@@H](Cc1ccc(Cl)cc1)C(=O)O; NMedβ3hAla = C[C@H](CC(=O)[*:2])N(C)[*:1]; NMeGly(cPent) = CN[C@H](C(=O)O)C1CCCC1; Pro(4,4-F2) = O=C(O)[C@@H]1CC(F)(F)CN1; Met(O2) = CS(=O)(=O)CC[C@H](N)C(=O)O; NMeCha = CN[C@@H](CC1CCCCC1)C(=O)O; NMeChg = CN[C@H](C(=O)O)C1CCCCC1; NMeD = CN[C@@H](CC(=O)O)C(=O)O; NMeL = CN[C@@H](CC(C)C)C(=O)O; Chg = N[C@H](C(=O)O)C1CCCCC1; NMePra = C#CC[C@H](NC)C(=O)O; NMeV = CN[C@H](C(=O)O)C(C)C; d(β3hA) = C[C@@H](N)CC(=O)O; dIva = CC[C@@](C)(N)C(=O)O; Pip = O=C(O)[C@@H]1CCCCN1; dPip = O=C(O)[C@H]1CCCCN1; NMeA = CN[C@@H](C)C(=O)O; Piperidide = C1CCN(*)CC1; Ac5c = NC1(C(=O)O)CCCC1; Aze = O=C(O)[C@@H]1CCN1; Ac3c = NC1(C(=O)O)CC1; Aib = CC(C)(N)C(=O)O; Sar = CNCC(=O)O
# Biological target: T1, Kras and SOS1 (biotin-tagged human Kras loaded with GDP, His-tagged human SOS1) (Homo sapiens, UniProt P01116, G12D)
# T1 construct: made in house; host or cells: E. coli (stated for Kras only)
# Experiment: Protein-protein interaction inhibition between Kras and SOS1 (KrasGl2D-SOS PPI) using AlphaScreen
# Format: binding
# Conditions: AlphaScreen; biotin-tagged human Kras loaded with GDP, His-tagged human SOS1; read-out: KRAS G12D-SOS PPI IC50
# Summary of the method: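 Energy transfer from nickel-chelate donor beads bound to His-SOS1 to streptavidin acceptor beads bound to biotin-Kras, expressed in E. coli and loaded with GDP after purification, was monitored. Donors were excited at 680 nm; singlet oxygen reaching acceptors gave emission read at 520-620 nm.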
# T1 sequence (P01116 1-188 isoform P01116-2 G12D): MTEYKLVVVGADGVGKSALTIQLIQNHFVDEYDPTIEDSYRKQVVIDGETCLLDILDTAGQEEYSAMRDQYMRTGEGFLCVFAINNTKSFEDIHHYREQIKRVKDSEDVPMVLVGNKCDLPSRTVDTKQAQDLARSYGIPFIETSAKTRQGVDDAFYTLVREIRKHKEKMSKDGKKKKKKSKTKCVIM
row,Compound,IC50 [µM]
1,CC[C@H](C)[C@@H]1NC(=O)[C@H](C)N(C)C(=O)C[C@@H](C)NC(=O)[C@H](C(C)C)N(C)C(=O)C2(CCCC2)NC(=O)[C@@H]2CCCN2C(=O)[C@H](CCc2ccc(C(F)(F)F)c(Cl)c2)NC(=O)[C@H]2CCCCN2C(=O)[C@H](CC2CCCCC2)N(C)C(=O)[C@@H]2CCN2C(=O)CN(C)C1=O [Compound 267] (cyclo([Ac5c][NMeV][d(β3hA)][NMeA]I[Sar][Aze][NMeCha][dPip][hPhe(3-Cl-4-CF3)]P)),0.13
2,CC[C@H](C)[C@@H]1NC(=O)[C@H](CC(C)C)N(C)C(=O)C[C@@H](C)N(C)C(=O)[C@H](C(C)C)N(C)C(=O)C2(CC2)NC(=O)[C@@H]2CCCN2C(=O)[C@H](CCc2ccc(C(F)(F)F)c(Cl)c2)NC(=O)CN(C)C(=O)[C@H](CC2CCCCC2)N(C)C(=O)CN(C)C(=O)CN(C)C1=O [Compound 268] (cyclo([Ac3c][NMeV][NMedβ3hAla][NMeL]I[Sar][Sar][NMeCha][Sar][hPhe(3-Cl-4-CF3)]P)),0.018
3,"CC[C@H](C)[C@@H]1NC(=O)[C@H](CC(C)C)N(C)C(=O)C[C@@H](C)N(C)C(=O)[C@H](C2CCCC2)N(C)C(=O)C2(CCCC2)NC(=O)[C@@H]2CC(F)(F)CN2C(=O)[C@H](CCc2cc(F)c(C(F)(F)F)c(F)c2)NC(=O)CN(C)C(=O)[C@H](Cc2ccc(C(F)(F)F)cc2)N(C)C(=O)CN(C)C(=O)CN(C)C1=O [Compound 269] (cyclo([Ac5c][NMeGly(cPent)][NMedβ3hAla][NMeL]I[Sar][Sar][NMePhe(4-CF3)][Sar][hPhe(3,5-F2-4-CF3)][Pro(4,4-F2)]))",0.0034
4,CC[C@H](C)[C@@H]1NC(=O)[C@H](CC(C)C)N(C)C(=O)C[C@@H](C)NC(=O)[C@H](C(C)C)N(C)C(=O)[C@@](C)(CC)NC(=O)[C@@H]2CCCN2C(=O)[C@H](CCc2ccc(C(F)(F)F)c(Cl)c2)NC(=O)CN(C)C(=O)[C@H](CC2CCCCC2)N(C)C(=O)CN(C)C(=O)CN(C)C1=O [Compound 275] (cyclo(I[Sar][Sar][NMeCha][Sar][hPhe(3-Cl-4-CF3)]P[dIva][NMeV][d(β3hA)][NMeL])),0.046
5,CC[C@H](C)[C@@H]1NC(=O)[C@H](CC(C)C)N(C)C(=O)C[C@@H](C(=O)N2CCCCC2)N(C)C(=O)[C@H](C2CCCCC2)N(C)C(=O)C2(CCCC2)NC(=O)[C@@H](C)NC(=O)[C@H](CCc2ccc(C(F)(F)F)c(Cl)c2)NC(=O)CN(C)C(=O)[C@H](CC2CCCCC2)N(C)C(=O)CN(C)C(=O)CN(C)C1=O [Compound 277] ([NMeL]I[Sar][Sar][NMeCha][Sar][hPhe(3-Cl-4-CF3)][dA][Ac5c][NMeChg][NMeD]-Piperidide; lactam N-11),0.0051
6,CC(C)C[C@H]1C(=O)N[C@@H](C2CCCCC2)C(=O)N(C)CC(=O)N(C)CC(=O)N(C)[C@@H](CC2CCCCC2)C(=O)N(C)CC(=O)N[C@@H](CCc2ccc(C(F)(F)F)c(Cl)c2)C(=O)N2CCC[C@H]2C(=O)NC2(CCCC2)C(=O)N(C)[C@@H](C(C)C)C(=O)N(C)[C@H](C(=O)N2CCCCC2)CC(=O)N1C [Compound 281] ([NMeL][Chg][Sar][Sar][NMeCha][Sar][hPhe(3-Cl-4-CF3)]P[Ac5c][NMeV][NMeD]-Piperidide; lactam N-11),0.0078
7,CC(C)C[C@H]1C(=O)N[C@@H](CCS(C)(=O)=O)C(=O)N(C)CC(=O)N(C)CC(=O)N(C)[C@@H](CC2CCCCC2)C(=O)N(C)CC(=O)N[C@@H](CCc2ccc(C(F)(F)F)c(Cl)c2)C(=O)N2CCC[C@H]2C(=O)NC2(CCCC2)C(=O)N(C)[C@@H](C2CCCCC2)C(=O)N(C)[C@H](C(=O)N2CCCCC2)CC(=O)N1C [Compound 283] ([NMeL][Met(O2)][Sar][Sar][NMeCha][Sar][hPhe(3-Cl-4-CF3)]P[Ac5c][NMeChg][NMeD]-Piperidide; lactam N-11),0.0068
8,C#CC[C@H]1C(=O)N(C)[C@H](C(=O)N2CCCCC2)CC(=O)N(C)[C@@H](CC(C)C)C(=O)N[C@@H]([C@@H](C)CC)C(=O)N(C)CC(=O)N(C)CC(=O)N(C)[C@@H](CC2CCCCC2)C(=O)N(C)CC(=O)N[C@@H](CCc2ccc(C(F)(F)F)c(Cl)c2)C(=O)N2CCC[C@H]2C(=O)NC2(CCCC2)C(=O)N1C [Compound 284] ([NMeL]I[Sar][Sar][NMeCha][Sar][hPhe(3-Cl-4-CF3)]P[Ac5c][NMePra][NMeD]-Piperidide; lactam N-11),0.071
9,CC[C@H](C)[C@@H]1NC(=O)[C@@H]2CCCCN2C(=O)C[C@@H](C)NC(=O)[C@H](CC(C)C)N(C)C(=O)C(C)(C)NC(=O)[C@H](CC(C)C)N(C)C(=O)[C@H](CCc2ccc(C(F)(F)F)cc2)NC(=O)CN(C)C(=O)[C@H](Cc2ccc(Cl)cc2)N(C)C(=O)CN(C)C(=O)CN(C)C1=O [Compound 286] (cyclo([Aib][NMeL][d(β3hA)][Pip]I[Sar][Sar][NMePhe(4-Cl)][Sar][hPhe(4-CF3)][NMeL])),0.096
